# Experimental data reported in patent publication US20220127258A1, “AROMATIC RING OR HETEROAROMATIC RING COMPOUNDS, PREPARATION METHOD THEREFOR AND MEDICAL USE THEREOF” (The National Institutes of Pharmaceutical R&D Co., Ltd., priority 2019, published 2022).
# Target: T1, FXR (Homo sapiens, UniProt Q96RI1)
# T1 sequence (Q96RI1 262-486 limits assumed): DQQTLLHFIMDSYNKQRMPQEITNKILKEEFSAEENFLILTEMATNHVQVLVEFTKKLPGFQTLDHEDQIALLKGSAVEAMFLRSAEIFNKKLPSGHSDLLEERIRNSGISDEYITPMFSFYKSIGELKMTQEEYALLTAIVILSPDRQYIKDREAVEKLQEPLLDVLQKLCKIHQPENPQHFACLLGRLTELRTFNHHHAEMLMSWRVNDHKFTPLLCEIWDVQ
# Assay: FXR agonistic activity, luciferase assay
# Format: cell-based
# Details: luc2P-GAL4-HEK293 cells transfected with pBIND-FXR, 24 hours
# Protocol: The FXR agonistic activity of the compound of the present invention was evaluated using the luciferase assay.
# The experimental process comprises the follows. The luc2P-GAL4-HEK293 stably transfected cell line (the cell line was established by transfecting pGL4.35 plasmid with HEK293 cells which was then subjected to Hygromycin B screening. The cell contained 9×GAL4 UAS and firefly luciferase reporter gene. The ligand-activated LBD-GAL4 DBD fusion protein can enter the nucleus to bind to 9×GAL4 UAS and activate the transcription of the downstream luciferase reporter gene) was transferred to a 96-well plate with […] per well. pBIND-FXR (Which was constructed by inserting FXR-LBD into pFN26A-BIND hRluc-neo Flexi® vector. The plasmid was 7.5 kb in size, Amp resistant, contained FXR-LBD, and can express FXR-LBD and GAL4 DBD fusion proteins) was transfected using X-tremeGENE HP transfection reagent. The ratio of plasmid to transfection reagent was 1 μg: 2 μl. The specific amount was 100 ng of plasmid and 0.2 μl of X-tremeGENE HP transfection reagent per well. The test compounds (the highest concentration of each compound was 30 μM, 3-fold dilution, a total of 10 concentrations) were added to induce the expression of luciferase. After 24 hours, the 96-well plate containing the test cells was taken out from the incubator, and placed at room temperature. Dual-Glo® Luciferase Reagent with the volume equal to the volume of the medium in the well (80 μl/well) was added to each well and mixed well. The plate was incubated at room temperature for 20 minutes to allow the cells to be fully lysed. All the liquid in the plate was transferred to a 96-well microtiter plate, and the firefly luciferin value was measured with a multi-function plate reader (manufacturer: Bio Tek (USA); model: Synergy4). Dual-Glo® a Stop & Glo® Reagent with the volume equal to the volume of the initial medium (80 μl/well) was added to each well and mixed well. The plate was incubated at room temperature for 10 minutes, and the renilla luciferin value was measured. The measurement order of renilla fluorescence should be the same as that of firefly fluorescence. Curve fitting and EC50 calculation were conducted using GraphPad Prism 5 software by nonlinear regression method. The fitting equation is: Y=Bottom+(Top−Bottom)/(1+10^((Log EC50−X)*HillSlope)), wherein EC50 refers to the semi-effective concentration, Top refers to the maximum effect, Bottom refers to the blank effect, and HillSlope refers to the slope.
row,Compound,EC50 [nM]
1,"O=C(O)c1ccc(-c2noc(N3[C@@H]4CC[C@H]3C[C@@H](OCc3c(-c5c(Cl)cccc5Cl)noc3C3CC3)C4)n2)cc1 [Example 1, 4-(5-((1R,3r,5S)-3-((5-cyclopropyl-3-(2,6-dichlorophenyl)-isoxazol-4-yl)methoxy)-8-azabicyclo[3.2.1]octan-8-yl)-1,2,4-oxadiazol-3-yl)benzoic acid]",< 25
2,"O=C(O)c1ccc(-c2noc(N3[C@@H]4CC[C@H]3C[C@@H](OCc3c(-c5c(Cl)cccc5Cl)noc3C3CC3)C4)n2)cc1Cl [Example 2, 2-chloro-4-(5-((1R,3r,5S)-3-((5-cyclopropyl-3-(2,6-dichlorophenyl)isoxazol-4-yl)methoxy)-8-azabicyclo[3.2.1]octan-8-yl)-1,2,4-oxadiazol-3-yl)benzoic acid]",< 25
3,O=C(O)c1cccc(-c2noc(N3[C@@H]4CC[C@H]3C[C@@H](OCc3c(-c5c(Cl)cccc5Cl)noc3C3CC3)C4)n2)n1 [Example 3],< 25
4,O=C(O)c1ccc(-c2noc(N3[C@@H]4CC[C@H]3C[C@@H](OCc3c(-c5c(Cl)cccc5Cl)noc3C3CC3)C4)n2)s1 [Example 4],< 25
5,Cc1cc(C(=O)O)ccc1-c1noc(N2[C@@H]3CC[C@H]2C[C@@H](OCc2c(-c4c(Cl)cccc4Cl)noc2C2CC2)C3)n1 [Example 5],< 25
6,O=C(O)c1cccc(-c2noc(N3[C@@H]4CC[C@H]3C[C@@H](OCc3c(-c5c(Cl)cccc5Cl)noc3C3CC3)C4)n2)c1 [Example 6],< 25
7,Cc1cc(-c2noc(N3[C@@H]4CC[C@H]3C[C@@H](OCc3c(-c5c(Cl)cccc5Cl)noc3C3CC3)C4)n2)ccc1C(=O)O [Example 7],< 25
8,"O=C(O)c1cccc(-c2nnc(N3[C@@H]4CC[C@H]3C[C@@H](OCc3c(-c5c(Cl)cccc5Cl)noc3C3CC3)C4)o2)n1 [Example 10, 6-(5-((1R,3r,5S)-3-((5-cyclopropyl-3-(2,6-dichlorophenyl)isoxazol-4-yl)methoxy)-8-azabicyclo[3.2.1]octan-8-yl)-1,3,4-oxadiazol-2-yl)pyridine-2-carboxylic acid]",100 to 500
9,COc1cc(-c2nnc(N3[C@@H]4CC[C@H]3C[C@@H](OCc3c(-c5c(Cl)cccc5Cl)noc3C3CC3)C4)o2)ccc1C(=O)O [Example 13],< 25
10,O=C(O)c1cccc(-c2nnc(N3[C@@H]4CC[C@H]3C[C@@H](OCc3c(-c5c(Cl)cccc5Cl)noc3C3CC3)C4)o2)c1 [Example 15],< 25
11,"O=C(O)c1ccc(-c2nnc(N3[C@@H]4CC[C@H]3C[C@@H](OCc3c(-c5c(Cl)cccc5Cl)noc3C3CC3)C4)o2)c(F)c1 [Example 16, 4-(5-((1R,3r,5S)-(3-((5-cyclopropyl-3-(2,6-dichlorophenyl)isoxazol-4-yl))methoxy)-8-azabicyclo[3.2.1]octan-8-yl)-1,3,4-oxadiazol-2-yl)-3-fluorobenzoic acid]",50 to 100
12,Cc1cc(-c2nnc(N3[C@@H]4CC[C@H]3C[C@@H](OCc3c(-c5c(Cl)cccc5Cl)noc3C3CC3)C4)o2)ccc1C(=O)O [Example 17],< 25
13,"O=C(O)c1ccc(-c2nnc(N3[C@@H]4CC[C@H]3C[C@@H](OCc3c(-c5c(Cl)cccc5Cl)noc3C3CC3)C4)o2)cn1 [Example 18, 5-(5-((1R,3r,5S)-3-((5-cyclopropyl-3-(2,6-dichlorophenyl)isoxazol-4-yl)methoxy)-8-azabicyclo[3.2.1]octan-8-yl)-1,3,4-oxadiazol-2-yl)pyridine-carboxylic acid]",100 to 500
14,"O=C(O)c1ccc(-c2nnc(N3[C@@H]4CC[C@H]3C[C@@H](OCc3c(-c5c(Cl)cccc5Cl)noc3C3CC3)C4)o2)nc1 [Example 19, 6-(5-((1R,3r,5S)-3-((5-cyclopropyl-3-(2,6-dichlorophenyl)isoxazol-4-yl)methoxy)-8-azabicyclo[3.2.1]octan-8-yl)-1,3,4-oxadiazol-2-yl)nicotinic acid]",> 500
15,O=C(O)c1cc(-c2nnc(N3[C@@H]4CC[C@H]3C[C@@H](OCc3c(-c5c(Cl)cccc5Cl)noc3C3CC3)C4)o2)cs1 [Example 21],100 to 500
16,"O=C(O)c1ccc(-c2nnc(N3[C@@H]4CC[C@H]3C[C@@H](OCc3c(-c5ccccc5OC(F)(F)F)noc3C3CC3)C4)o2)cc1Cl [Example 23, 2-chloro-4-(5-((1R,3r,5S)-3-((5-cyclopropyl-3-(2-(trifluoromethoxy)phenyl)isoxazol-4-yl)methoxy)-8-azabicyclo[3.2.1]octan-8-yl)-1,3,4-oxadiazol-2-yl)benzoic acid]",100 to 500
17,"O=C(O)c1cccc(-c2nnc(N3[C@@H]4CC[C@H]3C[C@@H](OCc3c(-c5ccccc5OC(F)(F)F)noc3C3CC3)C4)o2)n1 [Example 24, 6-(5-((1R,3r,5S)-3-((5-cyclopropyl-3-(2-(trifluoromethoxy)phenyl)isoxazol-4-yl)methoxy)-8-azabicyclo[3.2.1]octan-8-yl)-1,3,4-oxadiazol-2-yl)pyridine-2-carboxylic acid]",> 500
18,O=C(O)c1ccc(-c2nnc(N3[C@@H]4CC[C@H]3C[C@@H](OCc3c(-c5ccccc5OC(F)(F)F)noc3C3CC3)C4)o2)s1 [Example 25],100 to 500
19,Cc1cc(C(=O)O)ccc1-c1nnc(N2[C@@H]3CC[C@H]2C[C@@H](OCc2c(-c4ccccc4OC(F)(F)F)noc2C2CC2)C3)o1 [Example 27],< 25
20,Cc1cc(-c2nnc(N3[C@@H]4CC[C@H]3C[C@@H](OCc3c(-c5ccccc5OC(F)(F)F)noc3C3CC3)C4)o2)ccc1C(=O)O [Example 30],< 25
21,"O=C(O)c1ccc(-c2nnc(N3[C@@H]4CC[C@H]3C[C@@H](OCc3c(-c5ccccc5OC(F)(F)F)noc3C3CC3)C4)o2)cn1 [Example 31, 5-(5-((1R,3r,5S)-3-((5-cyclopropyl-3-(2-(trifluoromethoxy)phenyl)isoxazol-4-yl)methoxy)-8-azabicyclo[3.2.1]octan-8-yl)-1,3,4-oxadiazol-2-yl)pyridine-carboxylic acid]",100 to 500
22,O=C(O)c1ccc(-c2nnc(N3[C@@H]4CC[C@H]3C[C@@H](OCc3c(-c5ccccc5OC(F)(F)F)noc3C3CC3)C4)o2)nc1 [Example 32],> 500
23,"O=C(O)c1csc(-c2nnc(N3[C@@H]4CC[C@H]3C[C@@H](OCc3c(-c5ccccc5OC(F)(F)F)noc3C3CC3)C4)o2)c1 [Example 33, 5-(5-((1R,3r,5S)-3-((5-cyclopropyl-3-(2-(trifluoromethoxy)phenyl)isoxazol-4-yl)methoxy)-8-azabicyclo[3.2.1]octan-8-yl)-1,3,4-oxadiazol-2-yl)thiophene-3-carboxylic acid]",100 to 500
24,O=C(O)c1cc(-c2nnc(N3[C@@H]4CC[C@H]3C[C@@H](OCc3c(-c5ccccc5OC(F)(F)F)noc3C3CC3)C4)o2)cs1 [Example 34],> 500
